System: Cholesterin-Biosynthese
Test: Inhibition of cholesterol biosynthesis in cell culture by 14C-precursor (14C sodium acetate) incorporation into cholesterol
Type: cell-based
Conditions: HEP-G2-Zellen, 1 % DMSO
Text: Prüfung auf Cholesterin-Biosynthese-Hemmung In Zellkulturen durch ^14C-Präkursoreinbau In Cholesterin.
Monolayers von HEP G2-Zellen in lipoproteinfreiem Nährmedium wurden mit entsprechenden Konzentrationen der Prüfsubstanzen 1 Stunde vorinkubiert; nach Zugabe des ^14C-markierten Präkursors '^4C-Natriumacetat wurde die Inkubation für 3 Stunden fortgesetzt. Danach wurde ein Teil der Zellen bei vorheriger Zugabe eines internen Standards von ^3H-Cholesterin alkalisch verseift. Die Lipide der verseiften Zellen wurden mit Chloroform-Methanol extrahiert. Dieses Lipidgemisch wurde nach Zusatz von Träger-Cholesterin präparativ dünnschichtchromatographisch getrennt, die Cholesterin-Bande nach dem Sichtbarmachen mit Jod-Dämpfen isoliert und die aus dem ^14C-Präkursor gebildete Menge ^14C-Cholesterins szintigraphisch bestimmt. In einem aliquoten Teil der Zellen wurde Zellprotein bestimmt, sodaß die in der Zeiteinheit/mg Zellprotein aus ^14C-Präkursor gebildete Menge ^14C-Cholesterins berechnet werden kann. Zum Vergleich für die Hemmwirkung eines zugesetzten Prüfpräparates diente die Lösungsmittelkontrolle, sodaß direkt die Hemmung der Cholesterin-Biosynthese bei einer bestimmten molaren Konzentration des Prüfpräparates im Medium angegeben werden kann. In aliquoten Anteilen der Zellkultur wurde die Intaktheit der Zellkulturen und die fehlende Zellschädigung durch Präparate-Einwirkung morphologisch (Lichtmikroskop) beurteilt.
Cholesterol-Biosynthese-Hemmung Zellkultur: HEP-G2-Zellen Lösungsmittel-Endkonzentration: 1 % DMSO

In the case of “3ß-Hydroxy-chola-5,23t-dien-24-carbonsäure-methylester [Beispiel 9]”, the IC50 (Cholesterol-Biosynthese-Hemmung) is reported as about 500 nM, the “Acetateinbau in Cholesterin im Vergleich zur Kontrolle” value (from here on “Acetateinbau”) (Präparat-Konzentration 1,0 x 10^-6 Mol/1, 1 µM) is reported as 52% and the “Acetateinbau” value (Präparat-Konzentration 1,0 x 10^-7 Mol/1, 0.1 µM) is reported as 56%. For the same substance, the “Acetateinbau” value (Präparat-Konzentration 2,5 x 10^-4 Mol/1, 250 µM) was 6% and the “Acetateinbau” value (Präparat-Konzentration 2,5 x 10^-5 Mol/1, 25 µM) was 17%.

From patent EP0346759A2, “Cholestadiene derivatives, process for their preparation, and their use as medicines with a HMG-CoA reductase-inhibiting activity” (HOECHST AKTIENGESELLSCHAFT, priority 1988, dated 1989)
